Reference: US20210318306A1, “Compositions for and Methods of Neutralizing Lipopolysaccharide Toxicity and Methods of Identifying the Same” (priority 2020, published 2021)
Several values for one entry are separate records, joined by “and”; a condition that tells them apart may be missing. Identical values can stand only once.

How the values were obtained:
[1] = test system: HEK-Blue hTLR4 cells; assay: IL-8 in HEK-Blue hTLR4 cell supernatants with standard P.g. LPS and simple solutions at 1 mM vs 10 mM total zinc (Example 4); format: cell-based, human
Description: HEK-Blue hTLR4 cells (Invivogen, cat #hkb-htlr4) were cultured in a DMEM culture medium supplemented with 10% FBS and 1% penstrep at 37° C. with 5% CO2. LPS from Porphyromonas gingivalis (P.g. LPS; Invivogen, cat #tlrl-pglps and cat #tlrl-ppglps) activates TLR4 receptor and downstream inflammation in HEK-Blue hTLR4 cells. P.g. LPS is co-incubated with HEK-Blue hTLR4 cells in the absence or presence of the simple solutions. Standard and ultrapure P.g. LPS were both used due to ultrapure being a specific ligand for the TLR4 receptor while standard LPS is a ligand for both TLR2 and TLR4.
The simple solutions a) Zinc Oxide (ZnO), b) Zinc Citrate (ZnCitrate), c) Zinc Oxide+Zinc Citrate (Dual Zinc; DZ), d) Dual Zinc+Arginine (DZA, zinc oxide, zinc citrate and arginine), and e) L-Arginine (Arg) were diluted at different concentrations with culture medium.
1) experiments using 1 mM vs 10 mM total zinc; and
HEK-Blue hTLR4 cells were plated in 96-well plates and grown until confluent at 37° C. and 5% CO2 in HEK-blue selection media (DMEM with 10% FBS, 1% penicillin-streptomycin, and antibiotics for HEK-blue selection (Invivogen, cat #hb-sel)). Cells were co-incubated overnight with varying concentrations of different zinc actives as well as arginine and stimulated with either 0.1 μg/mL standard P. gingivalis LPS or 1 μg/mL ultrapure P. gingivalis LPS. Cell supernatants were collected for human inflammation cytokine panels using Multiplex and ELISA analysis.
Multiplex analysis was performed using the MILLIPLEX MAP Human Cytokine/Chemokine Magnetic Bead Panel—Immunology Multiplex Assay for IL-1, IL-6, IL-8, TNFα, and GM-CSF (Millipore Sigma, cat #HCYTOMAG-60K).
Testing was performed using total zinc concentrations to normalize the amount the zinc applied in the cell culture medium during co-incubation. Two concentrations of total zinc ion are based on the potential amount of zinc retained on the mouth soft tissue surface.

[2] = test system: HEK-TLR4 cells; assay: P. gingivalis LPS-induced cytokine secretion by HEK-TLR4 cells, Luminex 5-plex magnetic bead panel (Example 2); format: cell-based, human
Description: Commercially available HEK-Blue TLR4 cells (Invitrogen) are recombinant HEK 293 cells that have been transformed with DNA that encodes TLR4 that is expressed and present on the cell surface. HEK-Blue TLR4 cells are grown ion culture and used can be used in experimental assays to identify test compositions that modulate inflammation pathways stimulated by TLR4-LPS interaction.
Initial for LPS and zinc-containing starting solutions were made as follows. An LPS starting solution was prepared as follows: a […] solution of LPS was prepared using 2 μl of 1 mg/ml LPS and 10 ml media. Multiple zinc starting solutions were each prepared using media as diluent: a) 20 mM zinc oxide, b) 2 mM zinc oxide, c) 20 mM zinc citrate, d) 2 mM zinc citrate, e) 20 mM of a composition containing a 2:1 mixture of zinc oxide and zinc citrate and f) 2 mM of a composition containing a 2:1 mixture of zinc oxide and zinc citrate. The starting solutions were used to prepare various test samples.
In some embodiments, control assays include “Untreated”, in which eight Zinc test samples without LPS were made: […], 10 mM zinc oxide+zinc citrate, 1 mM zinc oxide+zinc citrate, 10 mM zinc oxide+zinc citrate+arginine and 1 mM zinc oxide+zinc citrate+arginine, The test samples without LPS were prepared by diluting the zinc starting solutions with equal parts media. Eight test samples with LPS were made: […], […], […], […], 10 mM zinc oxide+zinc citrate LPS, 1 mM zinc oxide+zinc citrate LPS, 10 mM zinc oxide+zinc citrate+arginine LPS and 1 mM zinc oxide+zinc citrate+arginine LPS. The test samples with LPS were prepared by diluting the zinc starting solutions with equal parts LPS starting solution.
Cells were grown to 70-80% confluent in a 96 well plate. 100 uL of a test sample was added to a well. Cells with test sample were incubated overnight. Media was collected from each well and transferred to a corresponding well in a 96-well plate. Assays to measure proinflammatory cytokines including IL-8 secretion were performed for each well.
Inflammation markers in supernatants collected from HEK-Blue cells co-incubated with Zinc and Zinc+LPS were quantified using Luminex Magpix instrument (MAGPIX-XPON42) and human 5-plex cytokine/chemokine Magnetic bead panel (Millipore HCYTOMAG-60K). The human 5-plex cytokine/chemokine Magnetic bead panel quantifies TNF-α, IL-6, IL-8, IL-1β and GM-CSF.
The Luminex Kit Procedure outlined in the instruction manual for each separate Luminex kit was performed on the supernatants collected from the HEK-Blue cells co-incubated with Zinc test solutions without LPS and Zinc test solutions plus LPS. Quality controls in range for the specified analytes were performed to ensure levels were within the acceptable range.
To run the Luminex Test, all necessary calibration and verification procedures as outlined by the MagPix and xPonent softwares were completed and the appropriate protocol for the assay was selected. The standards were verified to be correct and complete the plate layout of samples was verified. […] The “Avg. Result” was identified in the results generated.
Experiments were conducted to identify compositions that inhibit P. gingivalis LPS-induced IL-8, TNFα, GM-CSF, IL-1β and IL-6 by HEK-TLR4 cells. HEK-TLR4 cells in 96 well plates were contacted with 100 μl samples. IL-8, TNFα, GM-CSF, IL-1β and IL-6 were detected as described above.

[3] = 1 mM total zinc with standard P.g. LPS (0.1 μg/ml)
[4] = 10 mM total zinc with standard P.g. LPS (0.1 μg/ml)
[5] = 300 ppm with 0.1μ/ml P. gingivalis LPS
[6] = 600 ppm with 0.1μ/ml P. gingivalis LPS

[O]=[Zn] [ZnO, zinc oxide]
IL-8 Concentration, Average [1, 3]: 39.5 pg/mL | IL-8 Concentration, replicate [1, 3]: 42.95 pg/mL and 30.75 pg/mL and 35.45 pg/mL and 48.85 pg/mL | IL-8 Concentration, Average [1, 4]: 18.9 pg/mL | IL-8 Concentration, replicate [1, 4]: 20.35 pg/mL and 27.65 pg/mL and 10.45 pg/mL and 16.95 pg/mL | IL-8 induced by co-incubation with P.g. LPS (in words) ([1]; at both 1 mM and 10 mM): reduced | GM-CSF (raw data, single replicate) [2, 5]: 0.5501 pg/ml (2×) and 0.633 pg/ml and 1.577 pg/ml | IL-1β (raw data, single replicate) [2, 5]: 6.491 pg/ml (2×) and 5.944 pg/ml and 6.674 pg/ml | IL-6 (raw data, single replicate) [2, 5]: 3.316 pg/mL and 3.775 pg/mL and 3.171 pg/mL and 4.174 pg/mL | IL-8 (average result) [2, 5]: 24200.24439257880 pg/mL | IL-8 (raw data, single replicate) [2, 5]: 31890.081340469700 pg/mL and 39006.703793117100 pg/mL and 13910.330133842900 pg/mL and 11993.862302885500 pg/mL | TNF-α (average result) [2, 5]: 42.3 pg/mL | TNFα (raw data, single replicate) [2, 5]: 41.56 pg/mL and 39.8 pg/mL and 38.16 pg/mL and 49.7 pg/mL | GM-CSF (raw data, single replicate) ([2]; 300 ppm, without LPS): <3.2 pg/ml (2×) and 0.3057 pg/ml and 0.5501 pg/ml | IL-1β (raw data, single replicate) ([2]; 300 ppm, without LPS): 0.4614 pg/ml (2×) and 0.8647 pg/ml and 1.507 pg/ml | IL-6 (raw data, single replicate) ([2]; 300 ppm, without LPS): 0.4605 pg/mL and 0.6587 pg/mL and 0.9797 pg/mL and 1.293 pg/mL | IL-8 (average result) ([2]; 300 ppm, without LPS): 452.8 pg/mL | IL-8 (raw data, single replicate) ([2]; 300 ppm, without LPS): 340.2 pg/mL and 393.1 pg/mL and 458.8 pg/mL and 619.1 pg/mL | TNF-α (average result) ([2]; 300 ppm, without LPS): 1.202 pg/mL | TNFα (raw data, single replicate) ([2]; 300 ppm, without LPS): 0.9029 pg/mL and 1.031 pg/mL and 1.244 pg/mL and 1.631 pg/mL | GM-CSF (raw data, single replicate) [2, 6]: 1.142 pg/mL and 1.315 pg/mL and 0.3863 pg/mL and 0.3057 pg/mL | IL-1β (raw data, single replicate) [2, 6]: 6.735 pg/mL and 6.309 pg/mL and 6.035 pg/mL and 5.701 pg/mL | IL-6 (raw data, single replicate) [2, 6]: 2.617 pg/mL and 2.44 pg/mL and 1.782 pg/mL and 2.023 pg/mL | IL-8 (average result) [2, 6]: 17453.90185032290 pg/mL | IL-8 (raw data, single replicate) [2, 6]: 21030.114488079100 pg/mL and 14514.694724312700 pg/mL and 20392.976523123200 pg/mL and 13877.821665776500 pg/mL | TNF-α (average result) [2, 6]: 26.47 pg/mL
